ChEMBL document CHEMBL5113521, “Discovery of a Novel Oral Proteasome Inhibitor to Block NLRP3 Inflammasome Activation with Anti-inflammation Activity” (J Med Chem, 2022)
The source made the active and inactive calls. The calls are words filed in the database; no cut-off is given here.

Legend:
[1] = Cmax in Sprague-Dawley rat at 0.5 mg/kg, iv measured upto 24 hrs by liquid chromatography tandem mass spectrometry; assay type: ADME, organism-based; set-up: time < 24 hrs, dose 0.5 mg/kg, route iv; conditions: in vivo
[2] = system: Mus musculus; assay: Protection against DSS-induced acute colitis in C57BL/6 mouse model assessed as improvement in goblet cell depletion at 0.125 to 0.5 mg/kg, po administered for 10 days by Hematoxylin and eosin staining based analysis; assay type: functional, organism-based; conditions: dose 0.125-0.5 mg/kg, time 10.0 day
[3] = molecular target: T1, Interferon-inducible protein AIM2 (Mus musculus) (UniProt Q91VJ1); assay: Inhibition of AIM2 inflammasome activation in LPS-primed mouse BMDM cells assessed as reduction in IL-1beta secretion at 7.5 to 60 nM preincubated for 1 hr followed by poly (dA/dT) stimulation by ELISA; assay type: cell-based; conditions: dose 7.5-60 nM
T1 sequence (whole entry): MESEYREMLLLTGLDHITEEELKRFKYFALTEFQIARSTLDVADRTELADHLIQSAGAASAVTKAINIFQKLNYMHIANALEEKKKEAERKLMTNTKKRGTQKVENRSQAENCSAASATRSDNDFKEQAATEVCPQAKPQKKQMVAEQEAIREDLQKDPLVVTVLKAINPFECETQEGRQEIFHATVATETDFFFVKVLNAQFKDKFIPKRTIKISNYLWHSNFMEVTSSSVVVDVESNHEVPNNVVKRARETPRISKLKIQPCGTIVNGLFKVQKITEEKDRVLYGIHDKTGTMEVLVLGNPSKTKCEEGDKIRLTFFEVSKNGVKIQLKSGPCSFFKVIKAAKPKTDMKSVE

[4] = species on record: Mus musculus; assay: Protection against DSS-induced C57BL/6 mouse ulcerative colitis model assessed as reduction in IL-1 beta in colon homogenate by ELISA; assay type: functional, organism-based; conditions: dose 0.125-0.5 mg/kg, route po, DDE = dose-dependent effect
[5] = MRT (0 to infinity) in Sprague-Dawley rat at 0.5 mg/kg, iv measured upto 24 hrs by liquid chromatography tandem mass spectrometry; assay type: ADME, organism-based; conditions: in vivo
[6] = system: Mus musculus; assay: Protection against DSS-induced acute colitis in C57BL/6 mouse model assessed as improvement in inflammatory cell infiltration at 0.125 to 0.5 mg/kg, po administered for 10 days by Hematoxylin and eosin staining based analysis; assay type: functional, organism-based; conditions: dose 0.125-0.5 mg/kg, time 10.0 day
[7] = molecular target: NACHT, LRR and PYD domains-containing protein 3 (Mus musculus) (UniProt Q8R4B8); assay: Inhibition of NLRP3 inflammasome activation in LPS-primed mouse J774.A1 cells assessed as inhibition of IL-1 beta release in supernatant preincubated for 1 hr followed by nigericin stimulation measured after 1 hr by Western blot analysis; assay type: cell-based; conditions: dose 7.5-60 nM, time 2.0 hrs, DDE = dose-dependent effect
[8] = molecular target: NACHT, LRR and PYD domains-containing protein 3 (Mus musculus) (UniProt Q8R4B8); assay: Inhibition of NLRP3 inflammasome activation in LPS-stimulated mouse J774.A1 cells assessed as blockage of NLRP3-ASC protein-protein interaction at 15 to 60 nM preincubated for 1 hr followed by nigericin stimulation by co-immunoprecipitation assay; assay type: cell-based; conditions: dose 15-60 nM
[9] = Apparent volume of distribution in Sprague-Dawley rat at 0.5 mg/kg, iv measured upto 24 hrs by liquid chromatography tandem mass spectrometry; assay type: ADME, organism-based; conditions: in vivo, read-out: Vz
[10] = molecular target: NACHT, LRR and PYD domains-containing protein 3 (Mus musculus) (UniProt Q8R4B8); assay: Inhibition of NLRP3 inflammasome activation in LPS-primed mouse BMDM cells assessed as reduction in IL-1 beta release preincubated for 1 hr followed by nigericin stimulation and measured after 1 hr by ELISA; assay type: cell-based; conditions: dose 7.5-60 nM, time 2.0 hrs, DDE = dose-dependent effect
[11] = Cmax in Sprague-Dawley rat at 1 mg/kg, po measured upto 24 hrs by liquid chromatography tandem mass spectrometry; assay type: ADME, organism-based; set-up: dose 1 mg/kg, time < 24 hrs, route po; conditions: in vivo
[12] = system: Mus musculus; assay: Anti-colitis activity against DSS-induced ulcerative colitis C57BL/6J mouse model assessed as suppression of DSS induced weight loss at 0.125 to 0.5 mg/kg, po administered every 72 hrs for 10 days; assay type: functional, organism-based; conditions: dose 0.125-0.5 mg/kg, time 10.0 day
[13] = Half life in Sprague-Dawley rat at 1 mg/kg, po measured upto 24 hrs by liquid chromatography tandem mass spectrometry; assay type: ADME, organism-based; conditions: in vivo
[14] = Tmax in Sprague-Dawley rat at 0.5 mg/kg, iv measured upto 24 hrs by liquid chromatography tandem mass spectrometry; assay type: ADME, organism-based; conditions: in vivo
[15] = Tmax in Sprague-Dawley rat at 1 mg/kg, po measured upto 24 hrs by liquid chromatography tandem mass spectrometry; assay type: ADME, organism-based; conditions: in vivo
[16] = system: Mus musculus; assay: Anti-colitis activity against DSS-induced C57BL/6 mouse model assessed as suppression of DSS induced fecal occult blood at 0.125 to 0.5 mg/kg, po administered every 72 hrs for 10 days; assay type: functional, organism-based; conditions: dose 0.125-0.5 mg/kg, time 10.0 day
[17] = system: Mus musculus; assay: Protection against DSS-induced C57BL/6 mouse ulcerative colitis model assessed as reduction in pro-IL-1 beta level in colon at 0.125 to 0.5 mg/kg, po by Western blot analysis; assay type: functional, organism-based; conditions: dose 0.125-0.5 mg/kg
[18] = system: J774.A1; assay: Inhibition of NF-kappaB in LPS treated mouse J774.A1 cells assessed as reduction in NLRP3 level at 60 nM incubated for 1 hr followed by LPS stimulation measured after 5 hrs by Western blot analysis; assay type: cell-based; conditions: time 6.0 hrs
[19] = AUC (0 to infinity) in Sprague-Dawley rat at 1 mg/kg, po measured upto 24 hrs by liquid chromatography tandem mass spectrometry; assay type: ADME, organism-based; set-up: dose 1 mg/kg, time < 24 hrs, route po; conditions: in vivo
[20] = Cytotoxicity against HEK293 cells incubated for 24 hrs; assay type: toxicity, cell-based; conditions: human
[21] = molecular target: T2, Apoptosis-associated speck-like protein containing a CARD (Mus musculus) (UniProt Q9EPB4); assay: Inhibition of ASC oligomerization in LPS stimulated mouse J774A.1 cells preincubated for 1 hr followed by nigericin stimulation by immunoblot analysis; assay type: cell-based; conditions: J774.A1, dose 15-60 nM, DDE = dose-dependent effect
T2 sequence (whole entry): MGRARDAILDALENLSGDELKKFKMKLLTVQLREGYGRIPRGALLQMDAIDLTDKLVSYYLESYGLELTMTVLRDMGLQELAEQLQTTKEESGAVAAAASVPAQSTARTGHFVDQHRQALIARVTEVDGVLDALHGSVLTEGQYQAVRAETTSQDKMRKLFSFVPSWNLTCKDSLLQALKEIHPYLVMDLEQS

[22] = system: Mus musculus; assay: Anti-colitis activity against DSS-induced ulcerative colitis C57BL/6J mouse assessed as reduction in colon length decrease at 0.125 to 0.5 mg/kg, po administered every 72 hrs for 10 days; assay type: functional, organism-based; conditions: dose 0.125-0.5 mg/kg, time 10.0 day
[23] = molecular target: T3, Proteasome Macropain subunit MB1 (Homo sapiens, UniProt P28074); assay: Inhibition of 20S proteasome beta5 subunit (unknown origin) using Suc-LLVY-AMC as flurogenic substrate measured after 1 hr by fluorescence based analysis; conditions: read-out: IC50
T3 sequence (P28074 whole entry): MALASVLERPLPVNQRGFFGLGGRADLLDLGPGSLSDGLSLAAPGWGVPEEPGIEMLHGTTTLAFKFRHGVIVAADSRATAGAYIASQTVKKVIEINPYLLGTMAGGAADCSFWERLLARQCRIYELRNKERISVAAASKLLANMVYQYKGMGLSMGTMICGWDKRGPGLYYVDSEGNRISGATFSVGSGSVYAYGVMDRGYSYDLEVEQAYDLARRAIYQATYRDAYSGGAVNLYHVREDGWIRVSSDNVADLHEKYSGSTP

Chain of NACHT, LRR and PYD domains-containing protein 3 (Mus musculus) (Q8R4B8 whole entry, the tested form may be a part): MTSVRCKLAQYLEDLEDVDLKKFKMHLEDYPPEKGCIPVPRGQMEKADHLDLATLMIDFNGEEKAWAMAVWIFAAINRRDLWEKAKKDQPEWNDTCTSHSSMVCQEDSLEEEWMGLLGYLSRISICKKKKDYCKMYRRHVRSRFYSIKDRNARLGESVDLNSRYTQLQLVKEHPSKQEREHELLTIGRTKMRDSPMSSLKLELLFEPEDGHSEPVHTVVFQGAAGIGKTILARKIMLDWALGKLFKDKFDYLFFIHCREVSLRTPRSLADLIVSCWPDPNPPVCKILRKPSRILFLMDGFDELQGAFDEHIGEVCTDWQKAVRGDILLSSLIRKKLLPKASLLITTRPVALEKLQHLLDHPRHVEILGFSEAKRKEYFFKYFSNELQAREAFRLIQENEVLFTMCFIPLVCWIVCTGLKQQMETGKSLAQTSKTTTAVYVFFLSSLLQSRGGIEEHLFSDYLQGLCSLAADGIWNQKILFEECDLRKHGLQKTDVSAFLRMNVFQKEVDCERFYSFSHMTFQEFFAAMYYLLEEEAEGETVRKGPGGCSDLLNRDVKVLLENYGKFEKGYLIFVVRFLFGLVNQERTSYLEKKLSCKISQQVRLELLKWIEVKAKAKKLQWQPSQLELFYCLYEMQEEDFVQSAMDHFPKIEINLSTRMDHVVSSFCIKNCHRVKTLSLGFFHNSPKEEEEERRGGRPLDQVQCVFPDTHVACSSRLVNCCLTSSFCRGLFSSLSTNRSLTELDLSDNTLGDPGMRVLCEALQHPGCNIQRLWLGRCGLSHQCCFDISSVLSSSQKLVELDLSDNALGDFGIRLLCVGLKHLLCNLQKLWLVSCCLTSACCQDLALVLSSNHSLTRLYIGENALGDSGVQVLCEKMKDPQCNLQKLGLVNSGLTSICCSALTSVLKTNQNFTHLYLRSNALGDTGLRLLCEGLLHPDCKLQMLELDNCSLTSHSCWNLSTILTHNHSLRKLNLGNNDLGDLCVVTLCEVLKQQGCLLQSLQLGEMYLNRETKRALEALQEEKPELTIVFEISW

- Cmax [1]: 377 ng/mL
- inhibition [3]: Active
- MRT inf [5]: 6.14 h
- inhibition [7]: Dde
- inhibition [8]: Active
- Vd [9]: 7.7 L/kg
- inhibition [10]: Dde
- Cmax [11]: 208 ng/mL
- t1/2 [13]: 8.36 h
- Tmax [14]: 4.8 min
- Tmax [15]: 0.25 h
- AUC [19]: 489.2 ng·h/mL
- inhibition [21]: Dde
- IC50 [23]: 3.7 nM
Structure (SMILES): CC(C)C[C@H](NC(=O)[C@H](Cc1ccccc1)NC(=O)c1c(F)cccc1F)B(O)O
- Activity [2]: Active
- Activity [4]: Dde
- Activity [6]: Active
- Activity [12]: Active
- Activity [16]: Active
- Activity [17]: Active
- inhibition [18]: Active
- IC50 at 24 h [20]: < 79.4 nM
- Activity [22]: Active
